Reference: US11780821B2, “Inhibitors of fibroblast activation protein” (Praxis Biotech LLC, priority 2017, dated 2023)
pIC50: −log10 of the molar value. Like-named read-outs stand apart in the source and are kept apart here.

Experiments:
Type in all cases: biochemical
mouse plasma FAPα = target: T1, mouse plasma FAPα (Mus musculus, UniProt P97321); assay: FAPα enzymatic activity in mouse plasma; settings: C57BL/6 mouse plasma
T1 construct: from tissue; host or cells: mouse plasma (C57BL/6, EDTA)
T1 sequence (P97321 24-761 limits assumed): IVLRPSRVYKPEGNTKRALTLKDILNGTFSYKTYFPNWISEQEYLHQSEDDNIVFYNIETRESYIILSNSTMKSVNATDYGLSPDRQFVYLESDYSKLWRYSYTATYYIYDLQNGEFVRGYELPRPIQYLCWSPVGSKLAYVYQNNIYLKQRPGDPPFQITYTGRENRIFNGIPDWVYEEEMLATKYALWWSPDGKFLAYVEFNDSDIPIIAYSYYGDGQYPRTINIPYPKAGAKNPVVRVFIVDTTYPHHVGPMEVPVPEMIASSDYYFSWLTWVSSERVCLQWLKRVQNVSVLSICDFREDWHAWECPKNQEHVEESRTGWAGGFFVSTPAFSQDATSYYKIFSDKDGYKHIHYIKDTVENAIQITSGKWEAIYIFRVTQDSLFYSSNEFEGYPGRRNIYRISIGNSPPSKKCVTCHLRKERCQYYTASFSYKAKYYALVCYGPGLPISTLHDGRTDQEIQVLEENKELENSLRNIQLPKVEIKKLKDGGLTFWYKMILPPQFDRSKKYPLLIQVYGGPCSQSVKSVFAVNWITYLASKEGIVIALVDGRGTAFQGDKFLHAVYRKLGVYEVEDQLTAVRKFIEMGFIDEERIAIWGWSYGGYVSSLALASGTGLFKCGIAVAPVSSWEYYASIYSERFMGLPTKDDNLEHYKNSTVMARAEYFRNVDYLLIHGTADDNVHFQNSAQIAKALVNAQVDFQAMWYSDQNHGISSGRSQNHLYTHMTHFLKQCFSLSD
Method: The blood sample was immediately centrifuged at approximately 9000 g at 4° C. for 5 minutes. Plasma was separated and stored at −80° C. in aliquots of 300 μL. […] The assay was performed for 1 hour at 37° C. protected from light. 7-Amino-4-Methylcoumarin (AMC) release was detected measuring fluorescence at an excitation wavelength of 380 nm and an emission wavelength of 460 nm using a Multifunction Microplate Reader (Synergy 4, Biotek). All measurements were carried out at least as a single point.

[1] = target: T2, circulating FAPα from human plasma (Homo sapiens, UniProt Q12884); assay: Ex vivo inhibition of circulating FAPα activity from human plasma
T2 construct: from tissue; host or cells: human plasma (EDTA-K2)
T2 sequence (Q12884 24-760 limits assumed): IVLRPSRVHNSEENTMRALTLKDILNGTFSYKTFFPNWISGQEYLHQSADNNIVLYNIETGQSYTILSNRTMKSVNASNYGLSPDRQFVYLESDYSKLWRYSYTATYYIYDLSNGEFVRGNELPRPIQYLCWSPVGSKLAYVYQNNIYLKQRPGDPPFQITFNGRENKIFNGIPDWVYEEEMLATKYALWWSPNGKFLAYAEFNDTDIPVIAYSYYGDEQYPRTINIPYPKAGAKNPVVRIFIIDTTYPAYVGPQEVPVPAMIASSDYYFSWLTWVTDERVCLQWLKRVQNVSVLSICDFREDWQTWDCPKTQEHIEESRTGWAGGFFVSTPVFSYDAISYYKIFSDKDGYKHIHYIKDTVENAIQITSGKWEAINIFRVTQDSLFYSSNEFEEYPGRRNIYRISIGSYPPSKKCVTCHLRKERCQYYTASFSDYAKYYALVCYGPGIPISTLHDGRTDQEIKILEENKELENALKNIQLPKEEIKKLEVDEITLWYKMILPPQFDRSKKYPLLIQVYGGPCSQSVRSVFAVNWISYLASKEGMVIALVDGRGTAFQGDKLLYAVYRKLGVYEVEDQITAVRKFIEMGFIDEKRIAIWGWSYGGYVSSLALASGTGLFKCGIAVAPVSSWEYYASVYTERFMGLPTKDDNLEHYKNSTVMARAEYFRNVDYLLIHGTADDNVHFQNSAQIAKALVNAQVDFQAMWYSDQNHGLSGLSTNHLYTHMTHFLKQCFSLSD
Method: Human blood was obtained from healthy young volunteers. Blood samples were collected in tubes coated with EDTA-K2 by venipuncture method, mixed gently, then kept on ice and centrifuged at 2,500×g for 15 minutes at 4° C. After plasma separation, samples were stored at −80° C. in aliquots of 300 μL. […] Exemplary compounds were allowed to interact with the enzyme for 15 minutes at 37° C. After pre-incubation, 50 μl of 200 μM PRXS-AMC substrate were added to the all mixtures. All reactions were carried out for 1 h at 37° C. protected from light. AMC release was detected measuring fluorescence at an excitation/emission wavelength of 380/460 nm using a Multifunction Microplate Reader. All measurements were carried out as single point.

[2] = target: T3, recombinant human PREP (rhPREP) (Homo sapiens, UniProt P48147); assay: PREP enzymatic activity assay; settings: Z-Gly-Pro-AMC substrate
T3 sequence (P48147 1-710): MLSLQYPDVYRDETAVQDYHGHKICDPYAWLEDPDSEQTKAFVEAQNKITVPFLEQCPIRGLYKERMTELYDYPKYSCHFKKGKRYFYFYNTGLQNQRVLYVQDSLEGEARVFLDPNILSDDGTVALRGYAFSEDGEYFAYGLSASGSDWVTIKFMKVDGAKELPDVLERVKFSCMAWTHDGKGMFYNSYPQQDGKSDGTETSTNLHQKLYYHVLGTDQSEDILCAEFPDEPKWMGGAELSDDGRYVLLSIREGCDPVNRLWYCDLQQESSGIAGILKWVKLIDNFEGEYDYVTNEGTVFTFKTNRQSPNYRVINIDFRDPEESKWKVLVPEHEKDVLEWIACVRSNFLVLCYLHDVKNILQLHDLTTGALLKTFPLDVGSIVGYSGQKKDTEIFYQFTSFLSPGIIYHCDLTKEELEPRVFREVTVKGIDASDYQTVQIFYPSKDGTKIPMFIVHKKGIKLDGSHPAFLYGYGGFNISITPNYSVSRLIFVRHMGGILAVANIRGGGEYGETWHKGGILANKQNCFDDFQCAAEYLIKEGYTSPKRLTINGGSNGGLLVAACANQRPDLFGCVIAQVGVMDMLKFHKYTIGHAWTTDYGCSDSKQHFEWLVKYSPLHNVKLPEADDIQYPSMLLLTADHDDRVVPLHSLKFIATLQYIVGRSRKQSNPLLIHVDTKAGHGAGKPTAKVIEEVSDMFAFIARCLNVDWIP
Method: 7-Amino-4-Methylcoumarin (AMC) release was detected by measuring fluorescence at Ex/Em 380/460 nm using a Multifunction Microplate Reader (Synergy 4, Biotek). All measurements were carried out in triplicate.

[3] = PRXS-AMC substrate, read-out: mouse plasma FAPα (PRXS-AMC) (exo IC50)
[4] = Z-Gly-Pro-AMC substrate, read-out: mouse plasma FAPα (Z-Gly-Pro-AMC) (exo IC50)
[5] = human plasma, PRXS-AMC substrate, read-out: FAPα activity in human plasma (PRXS-AMC) IC50

Row | Structure (SMILES) | pIC50 (mouse plasma FAPα; [3]) | pIC50 (mouse plasma FAPα; [4]) | pIC50 [1, 5] | pIC50 [2] | pIC50 [1]
1 | N#C[C@@H]1CC(F)(F)CN1C(=O)CNC(=O)c1ccncc1-c1ccccc1 [Compound 13, (S)—N-(2-(2-cyano-4,4-difluoropyrrolidin-1-yl)-2-oxoethyl)-3-phenylisonicotinamide] | > 6.00 | > 6.00 | > 6.00 | < 5.00 | –
2 | N#C[C@@H]1CC(F)(F)CN1C(=O)CNC(=O)c1c[nH]c(=O)c(-c2ccccc2)c1 [Compound 14, (S)—N-(2-(2-cyano-4,4-difluoropyrrolidin-1-yl)-2-oxoethyl)-6-oxo-5-phenyl-1,6-dihydropyridine-3-carboxamide] | > 6.00 | > 6.00 | > 6.00 | < 5.00 | –
3 | N#C[C@@H]1CC(F)(F)CN1C(=O)CNC(=O)c1ccncc1C1CC1 [Compound 24, (S)—N-(2-(2-cyano-4,4-difluoropyrrolidin-1-yl)-2-oxoethyl)-3-cyclopropylisonicotinamide] | > 6.00 | > 6.00 | > 6.00 | 5.00 to 6.00 | –
4 | N#C[C@@H]1CC(F)(F)CN1C(=O)CNC(=O)c1c[nH]c(=O)c2ccc(F)cc12 [Compound 26, (S)—N-(2-(2-cyano-4,4-difluoropyrrolidin-1-yl)-2-oxoethyl)-6-fluoro-1-oxo-1,2-dihydroisoquinoline-4-carboxamide] | > 6.00 | > 6.00 | > 6.00 | 5.00 to 6.00 | –
5 | C=Cc1cnccc1C(=O)NCC(=O)N1CC(F)(F)C[C@H]1C#N [Compound 40, (S)—N-(2-(2-cyano-4,4-difluoropyrrolidin-1-yl)-2-oxoethyl)-3-vinylisonicotinamide] | > 6.00 | > 6.00 | > 6.00 | 5.00 to 6.00 | –
6 | N#C[C@@H]1CC(F)(F)CN1C(=O)CNC(=O)c1ccncc1-c1cc(F)cc(F)c1 [Compound 47, (S)—N-(2-(2-cyano-4,4-difluoropyrrolidin-1-yl)-2-oxoethyl)-3-(3,5-difluorophenyl)isonicotinamide] | > 6.00 | > 6.00 | – | < 5.00 | > 6.00
7 | N#C[C@@H]1CC(F)(F)CN1C(=O)CNC(=O)c1ccncc1Cc1ccccc1 [Compound 50, (S)-3-benzyl-N-(2-(2-cyano-4,4-difluoropyrrolidin-1-yl)-2-oxoethyl)isonicotinamide] | > 6.00 | > 6.00 | > 6.00 | 5.00 to 6.00 | –
8 | N#C[C@@H]1CC(F)(F)CN1C(=O)CNC(=O)c1ccncc1-c1ccc(F)cc1 [Compound 52, (S)—N-(2-(2-cyano-4,4-difluoropyrrolidin-1-yl)-2-oxoethyl)-3-(4-fluorophenyl)isonicotinamide] | > 6.00 | > 6.00 | > 6.00 | < 5.00 | –
9 | N#C[C@@H]1CC(F)(F)CN1C(=O)CNC(=O)c1ccncc1-c1cc(Cl)ccc1F [Compound 54, (S)-3-(5-chloro-2-fluorophenyl)-N-(2-(2-cyano-4,4-difluoropyrrolidin-1-yl)-2-oxoethyl)isonicotinamide] | > 6.00 | > 6.00 | > 6.00 | < 5.00 | –
10 | Cn1ncc2c(-c3cnccc3C(=O)NCC(=O)N3CC(F)(F)C[C@H]3C#N)cccc21 [Compound 87, (S)—N-(2-(2-cyano-4,4-difluoropyrrolidin-1-yl)-2-oxoethyl)-3-(1-methyl-1H-indazol-4-yl)isonicotinamide] | > 6.00 | > 6.00 | > 6.00 | < 5.00 | –
11 | N#C[C@@H]1CC(F)(F)CN1C(=O)CNC(=O)c1ccncc1N1CCOCC1 [Compound 88, N-[2-[(2S)-2-cyano-4,4-difluoro-pyrrolidin-1-yl]-2-oxo-ethyl]-3-morpholino-pyridine-4-carboxamide] | > 6.00 | > 6.00 | > 6.00 | < 5.00 | –
12 | N#C[C@@H]1CC(F)(F)CN1C(=O)CNC(=O)c1ccncc1C1=CCNCC1 [Compound 105, (S)—N-(2-(2-cyano-4,4-difluoropyrrolidin-1-yl)-2-oxoethyl)-1′,2′,3′,6′-tetrahydro-[3,4′-bipyridine]-4-carboxamide 2,2,2-trifluoroacetate] | > 6.00 | – | > 6.00 | < 5.00 | –
13 | N#C[C@@H]1CC(F)(F)CN1C(=O)CNC(=O)c1c[nH]c(=O)cc1-c1ccc(F)cc1 [Compound 109, (S)—N-(2-(2-cyano-4,4-difluoropyrrolidin-1-yl)-2-oxoethyl)-4-(4-fluorophenyl)-6-oxo-1,6-dihydropyridine-3-carboxamide] | > 6.00 | – | > 6.00 | < 5.00 | –
14 | C=C(c1ccccc1)c1cnccc1C(=O)NCC(=O)N1CC(F)(F)C[C@H]1C#N [Compound 122, (S)—N-(2-(2-cyano-4,4-difluoropyrrolidin-1-yl)-2-oxoethyl)-3-(1-phenylvinyl)isonicotinamide] | > 6.00 | – | – | < 5.00 | –
15 | N#C[C@@H]1CC(F)(F)CN1C(=O)CNC(=O)c1c[nH]c(=O)c2ccccc12 [Example 1, (S)—N-(2-(2-cyano-4,4-difluoropyrrolidin-1-yl)-2-oxoethyl)-1-oxo-1,2-dihydroisoquinoline-4-carboxamide] | – | > 6.00 | > 6.00 | 5.00 to 6.00 | –
